Source: patent US20260240834A1, “METHODS OF TREATING CANCER” (XRad Holding Cayman Limited, priority 2023, published 2026)
Where two headings read alike, the source gives them in different places. Values belong to the compound of their own block, whether it stands above or below them.

Legend:
[1] = test system: UWB1.289+BRCA1 stable cell line (wild-type BRCA1 restored); experiment: Clonogenic survival assay, UWB1.289+BRCA1; assay type: cell-based, human; settings: UWB1.289+BRCA1 cells, Compound A at 250, 500 or 1000 nM, 8 days
Description: (§1) A549 human lung carcinoma cell line, UWB1.289 BRCA1 mutant human ovarian cancer cell line, and UWB1.289+BRCA1 stable cell line derived from UWB1.289, in which wild-type BRCA1 was restored, were obtained from the American Type Culture Collection (ATCC). Capan-1 BRCA2 mutant human pancreatic cell line was obtained from the Duke Cell Culture Facility (Duke University, Durham, NC). HCC1937 BRCA1 mutant breast cancer cell line was obtained from Simon Powell (Memorial-Sloan Kettering, NY, NY). All cell lines were authenticated by short tandem repeat profiling and tested negative for mycoplasma. A549 cells were cultured in RPMI 1640 medium (Gibco), supplemented with 10% fetal bovine serum (FBS) (Corning) and 1× Antibiotic-Antimycotic (A-A) (Gibco). Capan-1 cells were grown in Iscove's Modified Dulbecco's Medium (IMDM) (Gibco), 20% FBS and 1×A-A. HCC1937 cells were grown in Iscove's Modified Dulbecco's Medium, 15% serum, and L-glutamine (2 mM). […]
(§2) UWB1.289 and UWB1.289+BRCA1 cells were plated in 6-well plates at 1000 cells/well and treated with DMSO or Compound A at 250, 500 or 1000 nM for 8 days before colonies were counted. For shRNA experiments, A549 cells were treated with DMSO or Compound A at 250, 500 or 1000 nM following transduction of control shRNA or shBRCA2 for 8 days before colonies were counted. […]

[2] = test system: Capan-1 BRCA2 mutant human pancreatic cell line; experiment: CellTiter-Glo (CTG) cell growth inhibition, Capan-1; assay type: cell-based; settings: Capan-1 cells; for IC50: Homo sapiens, 312 h
Description: (§3) A549 human lung carcinoma cell line, UWB1.289 BRCA1 mutant human ovarian cancer cell line, and UWB1.289+BRCA1 stable cell line derived from UWB1.289, in which wild-type BRCA1 was restored, were obtained from the American Type Culture Collection (ATCC). Capan-1 BRCA2 mutant human pancreatic cell line was obtained from the Duke Cell Culture Facility (Duke University, Durham, NC). HCC1937 BRCA1 mutant breast cancer cell line was obtained from Simon Powell (Memorial-Sloan Kettering, NY, NY). All cell lines were authenticated by short tandem repeat profiling and tested negative for mycoplasma. A549 cells were cultured in RPMI 1640 medium (Gibco), supplemented with 10% fetal bovine serum (FBS) (Corning) and 1× Antibiotic-Antimycotic (A-A) (Gibco). Capan-1 cells were grown in Iscove's Modified Dulbecco's Medium (IMDM) (Gibco), 20% FBS and 1×A-A. HCC1937 cells were grown in Iscove's Modified Dulbecco's Medium, 15% serum, and L-glutamine (2 mM). UWB1.289 and UWB1.289+BRCA1 cells were grown in 50% RPMI 1640 supplemented with 1 mM Sodium Pyruvate, 10 mM HEPES and 4500 mg/L glucose and 50% Mammary Epithelial Growth Medium (MEGM) (Clonetics) with 200 ug/ml G-418 (Gibco) and supplemented with 3% FBS and 1×A-A. All cell lines were grown at 37° C. in 5% CO2. Cell growth inhibition was determined via the CellTiter-Glo (CTG) assay (Promega). […] HCC1937 and UWB1.289 cells were treated with increasing concentrations of Compound A, niraparib, or the combination for 7 days.

[3] = test system: UWB1.289 BRCA1 mutant human ovarian cancer cell line; experiment: Clonogenic survival assay, UWB1.289; assay type: cell-based; settings: UWB1.289 cells, Compound A at 250, 500 or 1000 nM, 8 days
Description: as §1, §2

[4] = test system: HCC1937 BRCA1 mutant breast cancer cell line; experiment: CellTiter-Glo (CTG) cell growth inhibition, HCC1937; assay type: cell-based, human; settings: HCC1937 cells; for IC50: Homo sapiens, 168 h
Description: as §3

[5] = test system: UWB1.289+BRCA1 stable cell line (wild-type BRCA1 restored); experiment: CellTiter-Glo (CTG) cell growth inhibition, UWB1.289+BRCA1; assay type: cell-based, human; settings: for IC50: Homo sapiens, UWB1289, UWB1.289 + BRCA1 cells
Description: as §3

[6] = test system: UWB1.289 BRCA1 mutant human ovarian cancer cell line; experiment: CellTiter-Glo (CTG) cell growth inhibition, UWB1.289; assay type: cell-based; settings: UWB1.289 cells; for IC50: Homo sapiens
Description: as §3

[7] = test system: A549 human lung carcinoma cell line, BRCA2 knockdown (shBRCA2); experiment: Clonogenic survival assay, A549 with shBRCA2; assay type: cell-based; settings: A549 cells with BRCA2 knockdown, Compound A at 250, 500 or 1000 nM, 8 days
Description: as §1, §2

[8] = Compound A in combination with niraparib, 7 days

IC50 ([4]; single agent, 7 days, CTG, read-out: Single Agent IC50 (mean ± SEM) Compound A): 1000 ± 170 nM
IC50 ([6]; UWB1289, 168 h, single agent, 7 days, CTG, read-out: Single Agent IC50 (mean ± SEM) Compound A): 260 ± 100 nM
SMILES: CC(C)NCCOc1ncc(-c2cc3c4c(cnc3cc2F)N(C)C(=O)C42CCC2)cc1NS(C)(=O)=O [Compound A]
clonogenic survival [1]: rescued with re-expression of wild-type BRCA1
CI50 (combination index, method of Chou) ([2]; Compound A in combination with niraparib, 13 days): 0.5
IC50 ([2]; single agent, 13 days, CTG, read-out: Single Agent IC50 (mean ± SEM) Compound A): 810 ± 80 nM
clonogenic survival [3]: exhibited sensitivity to Compound A
CI50 (combination index, method of Chou) [4, 8]: 0.3
IC50 ([5]; single agent, CTG, read-out: Single Agent IC50 (mean ± SEM) Compound A): 800 ± 10 nM
CI50 (combination index, method of Chou) [6, 8]: 0.4
clonogenic survival [7]: dose-dependent decrease in survival

IC50 ([4]; 0.25 μM Compound A + increasing concentrations of niraparib for 7 days, read-out: IC50 + 0.25 μM Compound A (mean ± SEM) Niraparib): 380 ± 180 nM
IC50 ([4]; single agent, 7 days, CTG, read-out: Single Agent IC50 (mean ± SEM) Niraparib): 3700 ± 270 nM
IC50 ([6]; UWB1289, 168 h, single agent, 7 days, CTG, read-out: Single Agent IC50 (mean ± SEM) Niraparib): 330 ± 90 nM
IC50 ([6]; UWB1289, 0.25 μM Compound A + niraparib for 3 days, then niraparib alone for additional 4 days, read-out: IC50 + 0.25 μM Compound A (mean ± SEM) Niraparib): < 14 nM
SMILES: NC(=O)c1cccc2cn(-c3ccc([C@@H]4CCCNC4)cc3)nc12 [Niraparib, niraparib]
shift of the dose response curve of niraparib ([2]; addition of 0.5 μM Compound A): -5 fold
IC50 ([2]; 0.5 μM Compound A + increasing concentrations of niraparib for 13 days, read-out: IC50 + 0.5 μM Compound A (mean ± SEM) Niraparib): 110 ± 10 nM
IC50 ([2]; single agent, 13 days, CTG, read-out: Single Agent IC50 (mean ± SEM) Niraparib): 550 ± 50 nM
shift of the dose response curve of niraparib ([4]; addition of 0.25 μM Compound A): 10 fold
IC50 ([5]; 0.25 μM Compound A + niraparib for 3 days, then niraparib alone for additional 4 days, read-out: IC50 + 0.25 μM Compound A (mean ± SEM) Niraparib): 140 ± 20 nM
IC50 ([5]; single agent, CTG, read-out: Single Agent IC50 (mean ± SEM) Niraparib): 1400 ± 110 nM
shift of the dose response curve of niraparib ([5]; UWB1.289+BRCA1 cells, 0.25 μM Compound A for 3 days of a 7-day treatment with niraparib): 10 fold
shift of the dose response curve of niraparib ([6]; 0.25 μM Compound A for 3 days of a 7-day treatment with niraparib): > 23 fold
